One block for each compound: values may come before it.
Experiment: photoluminescence quantum yield (fraction); solvent given as SMILES

- photoluminescence quantum yield (in CC#N): 1
- photoluminescence quantum yield (in CCO): 0.88
- photoluminescence quantum yield (in CN(C)C=O): 0.74
- photoluminescence quantum yield (in O): 0.89
SMILES: COC(=O)c1ccccc1-c1c2ccc(=[NH2+])cc-2oc2cc(N)ccc12

- photoluminescence quantum yield (in ClCCl): 0.17
SMILES: COC(=O)c1cc(=O)n(C)c2cc(-c3ccccc3N(C)C)sc12

- photoluminescence quantum yield (in ClCCl): 0.12
SMILES: CC(C)[Si](C#Cc1c2cc3ccccc3cc2c(C#Cc2ccc(Br)cc2)c2cc3ccccc3cc12)(C(C)C)C(C)C

- photoluminescence quantum yield (in C1CCCCC1): 0.4
- photoluminescence quantum yield (in CC#N): 0.42
- photoluminescence quantum yield (in CO): 0.34
- photoluminescence quantum yield (in ClCCl): 0.57
SMILES: COc1c2ccccc2c(OC)c2c1c1ccc(C)cc1n2C

- photoluminescence quantum yield (in ClCCl): 0.46
SMILES: COc1ccc(-c2cc(-c3ccccc3)c3n2[B-](F)(F)[N+]2=C4C=NC=CN4[B-](F)(F)[N+]2=C3)cc1

- photoluminescence quantum yield (in ClCCl): 0.45
SMILES: CCCc1ccc(C#Cc2ccc3nc4ccc(C#Cc5ccc(CCC)cc5)cn4c(=O)c3c2)cc1

- photoluminescence quantum yield (in ClCCl): 0.6
SMILES: COc1ccc(-c2c3ccccc3c(C#Cc3ccccc3)c3cc4ccccc4cc23)cc1

- photoluminescence quantum yield (in CC1CCCCC1): 0.003
- photoluminescence quantum yield (in CC#N): 0.003
- photoluminescence quantum yield (in CO): 0.002
SMILES: COC(=O)C(NC(=O)OC(C)(C)C)c1ccc2oc(-c3ccc(OC(=O)c4ccccc4)cc3OC(=O)c3ccccc3)nc2c1 (stereo not drawn)

- photoluminescence quantum yield (in ClCCl): 0.151
SMILES: CCCCCCCCCCCCN1C(=O)c2c(c3ccc4cc(-c5ccc(C)cc5)c(OC)cc4c3c3c2ccc2cc(-c4ccc(C)cc4)c(OC)cc23)C1=O

- photoluminescence quantum yield (in C1CCCCC1): 0.22
SMILES: CCn1c2ccccc2c2ccc(-c3ccc(OC)cc3)cc21

- photoluminescence quantum yield (in C1CCOC1): 0.006
SMILES: O=P1(c2ccccc2)C(c2cccs2)=C(c2cccs2)c2ccccc21 (stereo not drawn)

- photoluminescence quantum yield (in C1COCCO1): 0.53
- photoluminescence quantum yield (in CC#N): 0.54
- photoluminescence quantum yield (in CCCCO): 0.27
- photoluminescence quantum yield (in CCO): 0.07
- photoluminescence quantum yield (in CO): 0.1
- photoluminescence quantum yield (in O): 0.41
SMILES: O=C(O)c1cc2c(ccc3ccccc32)oc1=O

- photoluminescence quantum yield (in CC1CCCCC1): 0.7
- photoluminescence quantum yield (in CC#N): 0.58
SMILES: C(=C\c1c2ccccc2cc2ccccc12)/c1cnc2ccccc2c1

- photoluminescence quantum yield (in C1CCCCC1): 0.65
SMILES: COc1ccc([Si](C)(C)C)c2ccccc12

- photoluminescence quantum yield (in CC#N): 0.41
SMILES: CCOC(=O)c1c2c3c(ccc([N+](=O)[O-])c3c3cc4ccccc4cc13)N(C)C2=O

- photoluminescence quantum yield (in ClC(Cl)Cl): 0.43
SMILES: c1ccc(-c2nc(-c3ccccc3)c(N(c3ccccc3)c3ccccc3)s2)cc1

- photoluminescence quantum yield (in ClC(Cl)Cl): 0.11
SMILES: COc1ccc2c(c1)SCC1=C(c3ccccc3)C3=Nc4c(-c5ccccc5)c5c(n4[B-](F)(F)[N+]3=C12)-c1ccc(OC)cc1SC5

- photoluminescence quantum yield (in CS(C)=O): 0.018
SMILES: COc1ccc(NC(=O)C(C(=O)Nc2ccc(OC)cc2)C(c2cc(F)ccc2O)c2c[nH]c3ccc(OC)cc23)cc1 (stereo not drawn)

- photoluminescence quantum yield (in ClCCl): 0.29
SMILES: C[Si]1(C)O[Si](C)(C)c2cc3nc4ccc(Cl)cc4c(-c4ccccc4)c3cc2[Si](C)(C)O1

- photoluminescence quantum yield (in ClCCl): 0.77
SMILES: C[Si]1(C)c2cc(-c3cccs3)ccc2C=Cc2ccc(-c3cccs3)cc21

- photoluminescence quantum yield (in C1CCOC1): 0.53
SMILES: CCCCCOc1cc2oc(=O)c3c4ccc(N(c5ccc(C)cc5)c5ccc(C)cc5)cc4c4ccc5cccc6c(c1)c2c3c4c56

- photoluminescence quantum yield (in CC#N): 0.61
- photoluminescence quantum yield (in CO): 0.28
- photoluminescence quantum yield (in ClCCl): 0.78
SMILES: O=C1c2ccccc2-c2c(-c3cc(Cl)ccc3O)[nH]c(=O)n21

Second part, the compound before the results:

SMILES: CC1=C(C2=C(C)C(C)=[N+]3C2=Cc2cc(C)c(C)n2[B-]3(F)F)C2=Cc3cc(C)c(C)n3[B-](F)(F)[N+]2=C1C
- photoluminescence quantum yield (in ClCCl): 0.05

SMILES: CCN1c2ccc(/C=N/Nc3ccccn3)cc2Sc2cc(-c3ccc(OC)cc3)ccc21
- photoluminescence quantum yield (in C1CCOC1): 0.32
- photoluminescence quantum yield (in CS(C)=O): 0.55
- photoluminescence quantum yield (in Cc1ccccc1): 0.16
- photoluminescence quantum yield (in ClCCl): 0.38

SMILES: COc1ccc(C2=CC(c3ccccc3)=[N+]3C2=Nc2c(-c4ccc(OC)cc4)cc(-c4ccccc4)n2[B-]3(F)F)cc1
- photoluminescence quantum yield (in Cc1ccccc1): 0.24
- photoluminescence quantum yield (in ClC(Cl)Cl): 0.23

SMILES: O=c1oc2ccccc2c2c1c(=O)oc1cc(O)cc(O)c12
- photoluminescence quantum yield (in ClCCl): 0.1

SMILES: c1cc2c3c(c1)OCCCCCCCOc1cccc(c1-c1c4ccccc4c-3c3ccccc13)OCCCCCCCO2
- photoluminescence quantum yield (in C1CCCCC1): 0.98

SMILES: O=C1Cc2cc3c(cc2CCCc2ccc(cc2)CCC3)CC(=O)Cc2ccc(c3nsnc23)C1
- photoluminescence quantum yield (in C1CCCCC1): 0.13
- photoluminescence quantum yield (in CC#N): 0.01
- photoluminescence quantum yield (in ClC(Cl)Cl): 0.05

SMILES: c1csc(-c2c3ccc(=[N+]4CCCCC4)cc-3oc3cc(N4CCCCC4)ccc23)c1
- photoluminescence quantum yield (in CCO): 0.1
- photoluminescence quantum yield (in ClCCl): 0.33

SMILES: Cc1c(COC(=O)Cc2c[nH]c3ccccc23)n2c(OCC(=O)Cc3c[nH]c4ccccc34)c(C)c(=O)n2c1=O
- photoluminescence quantum yield (in CCO): 0.715

SMILES: CCCCCCCCCCOc1cc(OCCCCCCCCCC)cc(C2=C3C(/C=C/c4ccc(N(C)C)cc4)=C(C#Cc4ccc(C(C)(C)C)cc4)C(/C=C/c4ccc(N(C)C)cc4)=[N+]3[B-](F)(F)n3c(/C=C/c4ccc(N(C)C)cc4)c(C#Cc4ccc(C(C)(C)C)cc4)c(/C=C/c4ccc(N(C)C)cc4)c32)c1
- photoluminescence quantum yield (in ClC(Cl)Cl): 0.05

SMILES: CCOC(=O)c1cc(C(=O)OCC)c2ccc(C)cc2n1
- photoluminescence quantum yield (in CCO): 0.019

SMILES: COc1ccc(C)cc1C1=C2C=CC(=[N+](C)C)C=C2[Si](C)(C)c2cc(N(C)C)ccc21
- photoluminescence quantum yield (in O): 0.28

SMILES: Cc1ccc(-c2ccc(/C=C/c3cccs3)cn2)nc1
- photoluminescence quantum yield (in CC#N): 0.042

SMILES: CC1=[N+]2C(=C(c3c4ccccc4c(-c4ccccc4)c4ccccc34)c3ccc(C)n3[B-]2(F)F)C=C1
- photoluminescence quantum yield (in CC#N): 0.004
- photoluminescence quantum yield (in CCCCCC): 0.773
- photoluminescence quantum yield (in CCO): 0.006
- photoluminescence quantum yield (in CN(C)C=O): 0.004
- photoluminescence quantum yield (in Cc1ccccc1): 0.141
- photoluminescence quantum yield (in ClCCl): 0.007

SMILES: CCCCCCCCn1c(=O)c2cc3cc4cc5c(=O)n(CCCCCCCC)c(=O)c5cc4c(C#Cc4ccc(N(c5ccccc5)c5ccccc5)cc4)c3cc2c1=O
- photoluminescence quantum yield (in ClC(Cl)Cl): 0.39

SMILES: c1ccc(-c2nnc(-c3ccc(N4c5ccccc5Oc5ccccc54)cc3)n2-c2ccccc2)cc1
- photoluminescence quantum yield (in Cc1ccccc1): 0.127

SMILES: FC(F)(F)c1cc2n(n1)[B-]1(c3ccccc3Oc3ccccc31)[n+]1ccc3ccccc3c1-2
- photoluminescence quantum yield (in C1CCCCC1): 0.0026
- photoluminescence quantum yield (in Cc1ccccc1): 0.0027
- photoluminescence quantum yield (in ClCCl): 0.0029

SMILES: C(=C\c1cc(-c2ccc3ccccc3c2)c(/C=C/c2ccc(N(c3ccccc3)c3ccccc3)cc2)cc1-c1ccc2ccccc2c1)/c1ccc(N(c2ccccc2)c2ccccc2)cc1
- photoluminescence quantum yield (in ClCCl): 0.59

SMILES: CC(C)c1cccc(C(C)C)c1N1C(=O)c2ccc3cc4c(cc5ccc6c7c(ccc4c57)C(=O)N(c4c(C(C)C)cccc4C(C)C)C6=O)c4ccc(c2c34)C1=O
- photoluminescence quantum yield (in ClCCl): 0.53

SMILES: CC(C)CCCC(C)CCN1C(=O)c2ccc3c(-c4ccccc4)c4c5ccc6c7c(ccc(c(-c8ccccc8)c4c4ccc(c2c34)C1=O)c75)C(=O)N(CCC(C)CCCC(C)C)C6=O (stereo not drawn)
- photoluminescence quantum yield (in ClCCl): 0.13

SMILES: Cc1nnc(-c2ccc(-n3c4ccccc4c4ccccc43)cc2)o1
- photoluminescence quantum yield (in Cc1ccccc1): 0.55

SMILES: Fc1c(-n2c3ccccc3c3ccccc32)c(-c2nnc(-c3ccccc3)o2)c(-n2c3ccccc3c3ccccc32)c(-n2c3ccccc3c3ccccc32)c1-n1c2ccccc2c2ccccc21
- photoluminescence quantum yield (in Cc1ccccc1): 0.1

SMILES: Cc1ccc(C(=O)NN2C3=C(CC4=C2CCCC4=O)C(=O)CCC3)cc1
- photoluminescence quantum yield (in C1CCOC1): 0.31
- photoluminescence quantum yield (in CC#N): 0.55
- photoluminescence quantum yield (in CC(C)=O): 0.32
- photoluminescence quantum yield (in CCCCCO): 0.5
- photoluminescence quantum yield (in CO): 0.4
- photoluminescence quantum yield (in ClC(Cl)Cl): 0.77
- photoluminescence quantum yield (in ClCCl): 0.44

SMILES: O=[N+]([O-])c1ccc(F)cc1C1CC(c2cccc3ccccc23)=NN1c1ccccc1 (stereo not drawn)
- photoluminescence quantum yield (in C1CCCCC1): 0.24
- photoluminescence quantum yield (in C1CCOC1): 0.3
- photoluminescence quantum yield (in C1COCCO1): 0.46
- photoluminescence quantum yield (in CC#N): 0.2
- photoluminescence quantum yield (in CC(C)O): 0.19
- photoluminescence quantum yield (in CCOC(C)=O): 0.15
- photoluminescence quantum yield (in CCOCC): 0.2
- photoluminescence quantum yield (in CO): 0.14
- photoluminescence quantum yield (in Cc1ccccc1): 0.22
- photoluminescence quantum yield (in ClC(Cl)Cl): 0.12
- photoluminescence quantum yield (in O): 0.12

SMILES: C=Cc1ccc(OC)c(OC)c1
- photoluminescence quantum yield (in C1CCCCC1): 0.32
- photoluminescence quantum yield (in CC#N): 0.29

SMILES: COc1ccc2c3ccc(OC)cc3n(-c3ccc(-c4nnc(-c5c(C)cc(C)cc5C)o4)cc3C)c2c1
- photoluminescence quantum yield (in Cc1ccccc1): 0.06

SMILES: Cc1ccc2c(c1)C1(c3ccccc3-c3ccccc31)c1cc(C)ccc1N2c1ccc(-c2ncccn2)cc1
- photoluminescence quantum yield (in O=P(c1ccccc1)(c1ccccc1)c1ccc2oc3ccc(P(=O)(c4ccccc4)c4ccccc4)cc3c2c1): 0.91

SMILES: CCOC(=O)C1=C(C(=O)OCC)C2(c3cc(Cl)ccc3-c3ccc(Cl)cc32)C2(/C=C/c3ccccc3)c3cc(OC)c(OC)cc3CCN12 (stereo not drawn)
- photoluminescence quantum yield (in ClCCl): 0.00196

SMILES: N#Cc1nn(-c2ccc(F)cc2)nc1N1CCCC1
- photoluminescence quantum yield (in CC#N): 0.683

SMILES: O=C1CCCC2=C1C(c1ccccc1)c1c(c3ccccc3oc1=O)N2 (stereo not drawn)
- photoluminescence quantum yield (in CS(C)=O): 0.41

SMILES: CC1(C)c2cccc(-c3nc(-c4ccccc4)nc(-c4ccccc4)n3)c2Oc2c(N3c4ccccc4Sc4ccccc43)cccc21
- photoluminescence quantum yield (in Cc1ccccc1): 0.077

SMILES: CCOC(CN1C(=O)C2=C(c3cccs3)N(CC(OCC)OCC)C(=O)C2=C1c1cccs1)OCC
- photoluminescence quantum yield (in ClC(Cl)Cl): 0.41

SMILES: c1ccc(-c2ccc(-c3ccc(N(c4ccccc4)c4ccccc4)cc3)c3nsnc23)cc1
- photoluminescence quantum yield (in C1CCOC1): 0.105
- photoluminescence quantum yield (in CC(C)=O): 0.01
- photoluminescence quantum yield (in CCCCCC): 0.492
- photoluminescence quantum yield (in CCOCC): 0.201

SMILES: COc1cc(N(c2ccccc2)c2ccccc2)ccc1C=C(C#N)C#N
- photoluminescence quantum yield (in C1COCCO1): 0.012
- photoluminescence quantum yield (in CC#N): 0.005
- photoluminescence quantum yield (in CC(C)=O): 0.013
- photoluminescence quantum yield (in CCOC(C)=O): 0.017
- photoluminescence quantum yield (in CN(C)C=O): 0.009
- photoluminescence quantum yield (in CO): 0.006
- photoluminescence quantum yield (in Cc1ccccc1): 0.01
- photoluminescence quantum yield (in ClC(Cl)Cl): 0.023
- photoluminescence quantum yield (in ClCCl): 0.016

SMILES: CC(C)Nc1cc2c(cc1F)c(=O)c1cc(F)c(NC(C)C)cc1n2C
- photoluminescence quantum yield (in CCO): 0.31

SMILES: COc1ccc(-c2nc(-c3ccc(OC)cc3C)nc(-c3ccc(N4c5ccccc5C5(c6ccccc6-c6ccccc65)c5ccccc54)cc3C)n2)c(C)c1
- photoluminescence quantum yield (in O=P(c1ccccc1)(c1ccccc1)c1ccccc1Oc1ccccc1P(=O)(c1ccccc1)c1ccccc1): 0.51

SMILES: CCOC(=O)CN1C(=O)C2=C(c3ccc(C#N)cc3)N(CC(=O)OCC)C(=O)C2=C1c1ccccc1
- photoluminescence quantum yield (in CC#N): 0.75
- photoluminescence quantum yield (in CS(C)=O): 0.51
- photoluminescence quantum yield (in Cc1ccccc1): 0.43

From the Deep4Chem optical property database
